In patent US4255435A, “Triazole compounds” (priority 1980, dated 1981):

Legend:
Type in all cases: in vivo
[1] = tested on: larvae of the codling moth (Cydia pomonella); experiment: Codling moth larvae on sprayed apple (number of strikes); conditions: Table 5, after five days, two replicates, 7200 min
Text: This example illustrates the activity of compounds of the invention against the larvae of the codling moth (Cydia pomonella).
An apple sprayed with test solution was allowed to dry and a perspex ring of 1 inch diameter was attached to the apple. Ten larvae were then placed on the apple surface and contained within the ring by means of a muslin covering. After five days an assessment of mortality was made by counting the number of strikes (i.e. the number of entry holes) made by the larvae.

[2] = tested on: larvae of the diamond back moth (Plutella maculipennis); experiment: Mortality of larvae of the diamond back moth on treated cabbage leaf; conditions: Table 1; cabbage leaf dipped in test solution, mortality after 24 + 24 hours, two replicates; 2880 min
Description: (§1) Ten larvae were placed in a tube together with a square inch of cabbage leaf which had been dipped in the test solution and allowed to dry. After twenty-four hours untreated cabbage was added for food and after a further twenty-four hours an assessment was made of the mortality of the larvae.
Two replicates were carried out for each test compound and test solutions of varying concentrations employed so that an LD50 value could be calculated.

[3] = tested on: larvae of the cabbage white butterfly (Pieris brassicae); experiment: Mortality of larvae of the cabbage white butterfly on treated cabbage leaf; conditions: Table 3; cabbage leaf dipped in test solution, mortality after 24 + 24 hours, two replicates; 2880 min
Description: This example illustrates the activity of compounds of the invention against larvae of the cabbage white butterfly (Pieris brassicae).
as §1

[4] = tested on: aphid Megoura viciae; experiment: Aphids on sprayed broad bean plants; conditions: Table 6; sprayed infested broad bean plants, 24 hours
Description: Broad bean plants 3 to 5 cm. high were infested with aphids and then sprayed with an aqueous dispersion containing varying concentrations of test compound. Each plant was kept under a lamp glass for 24 hours and then examined. In this way an LD50 value for the compounds was calculated.

[5] = tested on: eggs of the cabbage root fly (Erioischia brassicae); experiment: Egg hatch of cabbage root fly eggs in test solution; conditions: Table 4; eggs stored six days, egg hatch counted, two replicates; 8640 min
Text: This example illustrates the activity of compounds of the invention against the eggs of the cabbage root fly (Erioischia brassicae).
The eggs were then stored for six days and the egg hatch then counted.

[6] = tested on: nematode Meloidogyne incognita incognita; experiment: Root knots of tomato plants in nematode-infested treated soil; conditions: 100 parts per million per unit volume of soil, 30° C., ten days; untreated controls average more than 20 knots
Description: This example illustrates the activity of compounds of the invention against the nematode Meloidogyne incognita incognita.
Small tomato plants were transferred to containers with infested soil. Sufficient test compound to give a concentration of 100 parts per million per unit volume of soil was poured onto the soil and the containers suspended in warm water at 30° C.
After ten days the plants were knocked out of the containers and the roots washed clean, the number of knots being noted. The latter was an indication of activity and a low score indicated high activity.

[7] = tested on: insects; experiment: Insecticidal activity; conditions: in words
[8] = Mammalian toxicity; conditions: in words

1(2)-N,N-dimethylcarbamoyl-3-isopropyl-5-ethylthio-1,2,4-triazole [methyl methyl isopropyl ethyl]
ACTIVITY LD50 [1]: < 10 p.p.m.
ACTIVITY LD50 [2]: 140 p.p.m.

1(2)-N,N-dimethylcarbamoyl-3-isopropyl-5-methylthio-1,2,4-triazole [methyl methyl isopropyl methyl]
ACTIVITY LD50 [1]: 37 p.p.m.
ACTIVITY LD50 [2]: 160 p.p.m.
ACTIVITY LD50 [3]: 59 p.p.m.
ACTIVITY LD50 [4]: 1.1 p.p.m.

1(2)-N,N-dimethylcarbamoyl-3-isopropyl-5-propylthio-1,2,4-triazole [methyl methyl isopropyl propyl]
ACTIVITY LD50 [5]: 0.57 p.p.m.
ACTIVITY LD50 [1]: < 10 p.p.m.
ACTIVITY LD50 [2]: 220 p.p.m.
ACTIVITY LD50 [4]: 1.6 p.p.m.

1(2)-N,N-dimethylcarbamoyl-3-s-butyl-5-ethylthio-1,2,4-triazole [methyl methyl s-butyl ethyl]
ACTIVITY LD50 [1]: 18 p.p.m.
ACTIVITY LD50 [2]: 220 p.p.m.
ACTIVITY LD50 [4]: 0.66 p.p.m.

1(2)-N,N-dimethylcarbamoyl-3-s-butyl-5-methylthio-1,2,4-triazole [methyl methyl s-butyl methyl]
ACTIVITY LD50 [1]: 14 p.p.m.
ACTIVITY LD50 [2]: 140 p.p.m.
ACTIVITY LD50 [4]: 0.32 p.p.m.

1(2)-N,N-dimethylcarbamoyl-3-s-butyl-5-propylthio-1,2,4-triazole [methyl methyl s-butyl propyl]
ACTIVITY LD50 [1]: 10 p.p.m.
ACTIVITY LD50 [2]: 320 p.p.m.
ACTIVITY LD50 [4]: 0.86 p.p.m.

1(2)-N,N-dimethylcarbamoyl-3-t-butyl-5-ethylthio-1,2,4-triazole [methyl methyl t-butyl ethyl]
number of knots on roots [6]: ≤ 2 knots
ACTIVITY LD50 [1]: 24 p.p.m.
ACTIVITY LD50 [4]: 0.71 p.p.m.

1(2)-N,N-dimethylcarbamoyl-3-t-butyl-5-vinylthio-1,2,4-triazole [methyl methyl t-butyl vinyl]
number of knots on roots [6]: ≤ 2 knots
ACTIVITY LD50 [2]: 160 p.p.m.
ACTIVITY LD50 [4]: 0.61 p.p.m.

C#CCSc1nc(C(C)C)nn1C(=O)N(C)C [methyl methyl isopropyl prop-2-ynyl, 1(2)-N,N-dimethylcarbamoyl-3-isopropyl-5-prop-2-ynylthio-1,2,4-triazole]
ACTIVITY LD50 [2]: 87 p.p.m.
ACTIVITY LD50 [3]: 31 p.p.m.
ACTIVITY LD50 [4]: 1.5 p.p.m.

CSc1nc(C(C)(C)C)nn1C(=O)N(C)C [methyl methyl t-butyl methyl, 1-N,N-dimethylcarbamoyl-3-t-butyl-5-methylthio-1,2,4-triazole]
number of knots on roots [6]: ≤ 2 knots
insecticidal activity [7]: insecticidally active
mammalian toxicity [8]: too high to permit the more widespread use

C#CCSc1nc(C(C)(C)C)nn1C(=O)N(C)C [methyl methyl t-butyl prop-2-ynyl, 1(2)-N,N-dimethylcarbamoyl-3-t-butyl-5-prop-2-ynylthio-1,2,4-triazole]
number of knots on roots [6]: ≤ 2 knots
ACTIVITY LD50 [5]: 0.8 p.p.m.
ACTIVITY LD50 [2]: 33 p.p.m.
ACTIVITY LD50 [3]: 27 p.p.m.
ACTIVITY LD50 [4]: 1.1 p.p.m.
